Data as given in PMC12461331, “Screening of Medicines for Malaria Venture Open Boxes Identifies Potent SARS-CoV‑2 Papain-like Protease (PL^pro) Inhibitors” (ACS Omega, 2025).
“And” between values parts separate entries of the source, which are not always exact repeats. Equal entries are not always repeated. Structures can show the parent of a compound that is named as a salt. Where two headings read alike, the source gives them in different places.

Key:
PL^pro = PL^pro (Severe acute respiratory syndrome coronavirus 2, UniProt P0DTD1); details: 20 μM compound, 5 μM enzyme, average of triplicates with SD
SARS-CoV-2 [1] = details: for CoV2 Efficacy (delta S0:Sinf): HeLa-ACE2; for Data Mode: Hela-ACE2 % Positive SARS-CoV-2; for S0 / Sinf / nHill: Hela-ACE2 % Positive SARS-CoV-2, curve fit; for SI (average CC50/average EC50): supplement summary
HeLa-ACE2 cells [2] = details: for Data Mode / S0 / Sinf / nHill: Hela-ACE2 CoV-2 Total Cell count; for S0 / Sinf / nHill: curve fit; for HeLa-ACE2 Total Cell Efficacy (Sinf, note + or -): infected HeLa-ACE2 total cell count
[3] = system: uninfected HeLa-ACE2 cells; details: Hela-ACE2 Uninfected Cell Toxicity; for qAC50: relation in column qAC50 Mode, unit not given; for S0 / Sinf / nHill: curve fit
[4] = female, BALB/c, mouse, 1 h, 2 μM, pH 7.4
HeLa-ACE2 cells [5] = assay: cells; details: Homo sapiens; for AC50: HeLa-ACE2, read-out: Log AC50 (converted)
in vitro [6] = details: human, uninfected HeLa-ACE2 cells
physchem [7] = details: pH 7.4
in vitro [8] = details: PAMPA
physchem [9] = details: 25 °C, kinetic from dmso stock
in vitro [10] = details: human, microsomes, pH 7.4
in vitro [11] = details: CD1, mouse, microsomes, pH 7.4
SARS-CoV-2 [12] = assay: microbe, parasite or virus in culture; details: for AC50: Severe acute respiratory syndrome coronavirus 2, HeLa-ACE2, read-out: Log AC50 (converted)
[13] = Human liver microsomal stability assay; details: human, liver microsomes, pH 7.4
[14] = Mouse liver microsomal stability assay; details: CD1, mouse, liver microsomes, pH 7.4
Plasma stability = details: female, BALB/c, mouse, plasma, pH 7.4
[15] = HeLa-ACE2, read-out: HeLa-ACE2 Total cells EC50
[16] = uninfected HeLa-ACE2 CC50, supplement summary
[17] = Severe acute respiratory syndrome coronavirus 2, HeLa-ACE2, read-out: CoV-2 EC50
[18] = Severe acute respiratory syndrome coronavirus 2, HeLa-ACE2, read-out: qAC50

| SMILES | CoV2 Efficacy (delta S0:Sinf) (SARS-CoV-2 [1]) | Data Mode (SARS-CoV-2 [1]) | S0 (SARS-CoV-2 [1]) | Sinf (SARS-CoV-2 [1]) | nHill (SARS-CoV-2 [1]) | Data Mode (HeLa-ACE2 cells [2]) | Data Mode [3] | qAC50 [3] | plasma stability remaining 60 min [4] | EC50 (HeLa-ACE2 cells [5]; [15]) | EC50 (HeLa-ACE2 cells [5]; HeLa-ACE2, read-out: qAC50) | CC50 at 24 h (in vitro [6]; [16]) | chromatographic logD (physchem [7]) | Papp at 5 h, 10 μM (in vitro [8]) | solubility kinetic at 24 h (physchem [9]; pH 2, aqueous buffer) | solubility kinetic at 24 h (physchem [9]; pH 7.4, aqueous buffer) | microsomal CLint at 0.5 μM (in vitro [10]) | microsomal CLint at 0.5 μM (in vitro [11]) | half-life at 0.5 μM [13] | half-life at 0.5 μM [14] | other results |
| --- | --- | --- | --- | --- | --- | --- | --- | --- | --- | --- | --- | --- | --- | --- | --- | --- | --- | --- | --- | --- | --- |
| C[C@@H](c1cccc2ccccc12)N1CCC(C(=O)NCc2ccncc2)CC1 (racemic) [Compound 10] | 103.533 | decreasing (weakly active) | 3.533 | -100 | 4 | inactive | inactive | > 3.984e-5 | 97.19% | > 9610 nM | > 9610 nM | > 39800 nM | 3.32 | 1.01 ×10⁻⁶ cm/s | > 17.3 µg/mL | > 31 µg/mL | 75.6 µL/min/mg | 110 µL/min/mg | 36.7 min | 25.3 min | ΔT m (PL^pro): 4.65 °C and 4.6 ± 0.1 °C; CC50 at 24 h (in vitro [6]; uninfected HeLa-ACE2 CC50, uninfected HeLa-ACE2 cells, average of triplicates): > 39800 nM; AC50 (SARS-CoV-2 [12]): > 9610 nM; EC50 (SARS-CoV-2 [12]; Severe acute respiratory syndrome coronavirus 2, HeLa-ACE2, read-out: SARS-CoV-2 EC50, HeLa-ACE2 cells, average of triplicates): > 9610 nM; EC50 (SARS-CoV-2 [12]; Severe acute respiratory syndrome coronavirus 2, HeLa-ACE2, read-out: qAC50, Hela-ACE2 % Positive SARS-CoV-2, relation in column qAC50 Mode, unit inferred): > 9610 nM |
| COc1ccc(CNC(=O)[C@@H]2CCN([C@H](C)c3cccc4ccccc34)C2)cc1 (stereo in doubt) [Compound 18] |  |  |  |  |  |  |  |  | 56.69% |  |  |  | 4.24 | 0.56 ×10⁻⁶ cm/s | > 25.2 µg/mL | > 19.8 µg/mL | 212 µL/min/mg | 582 µL/min/mg | 13.1 min | 4.76 min | half-life at 2 μM (Plasma stability): 7.7 h |
| Cc1cccc(/C=N/Nc2cc(N3CCOCC3)nc(OCCc3ccccn3)n2)c1 [Apilimod, reference compound] | 96.257 | decreasing | 0.02088 | -96.2358 | 1.796 | inactive | decreasing | 5.705e-6 |  | > 2400 nM | > 2400 nM | 5700 nM |  |  |  |  |  |  |  |  | SI (average CC50/average EC50) (SARS-CoV-2 [1]): 222.534; S0 [3]: -7.369; Sinf [3]: -100; nHill [3]: 1.671; AC50 at 24 h (in vitro [6]): 5700 nM; EC50 (SARS-CoV-2 [12]; [17]): 26 nM; AC50 (SARS-CoV-2 [12]): 25.6 nM; EC50 (SARS-CoV-2 [12]; [18]): 25.6 nM |
| COc1ccc(CNC(=O)C2CCN(Cc3cccc4ccccc34)CC2)cc1 [Compound 1] |  |  |  |  |  |  |  |  | 43.36% |  |  |  | 4.18 | 1 ×10⁻⁶ cm/s | > 24.9 µg/mL | > 21.8 µg/mL | 117 µL/min/mg | 146 µL/min/mg | 23.7 min | 18.9 min | ΔT m (PL^pro): 0.40 ± 0.08 °C; half-life at 2 μM (Plasma stability): 4.44 h |
| COc1ccc(CC(=O)NC2CCN([C@@H](C)c3cccc4ccccc34)CC2)cc1 [Compound 7] |  |  |  |  |  |  |  |  | 95.21% |  |  |  | 4.27 | 1.03 ×10⁻⁶ cm/s | > 24.8 µg/mL | > 15.9 µg/mL | 205 µL/min/mg | 378 µL/min/mg | 13.5 min | 7.33 min | half-life at 2 μM (Plasma stability): 116 h |
| COc1ccc(CNC(=O)[C@@H]2CCN([C@@H](C)c3cccc4ccccc34)C2)cc1 [Compound 15] |  |  |  |  |  |  |  |  | 79.94% |  |  |  | 4.24 | 0.46 ×10⁻⁶ cm/s | > 23.9 µg/mL | > 19.1 µg/mL | 173 µL/min/mg | 742 µL/min/mg | 16.1 min | 3.74 min | ΔT m (PL^pro): 0.40 ± 0.06 °C; half-life at 2 μM (Plasma stability): 19.3 h |
| COc1ccc(C[C@H](N)C(=O)N[C@H]2[C@@H](O)[C@H](n3cnc4c(N(C)C)ncnc43)O[C@@H]2CO)cc1 [Puromycin dihydrochloride, reference compound] | 109.643 | decreasing | 10.0167 | -99.6259 | 4 | decreasing | decreasing | 5.784e-7 |  | 1140 nM | 1140 nM | 578 nM |  |  |  |  |  |  |  |  | SI (average CC50/average EC50) (SARS-CoV-2 [1]): 1.518; S0 (HeLa-ACE2 cells [2]): -17.6223; Sinf (HeLa-ACE2 cells [2]): -98.1852; nHill (HeLa-ACE2 cells [2]): 4; HeLa-ACE2 Total Cell Efficacy (Sinf, note + or -) (HeLa-ACE2 cells [2]): 4.000; S0 [3]: -1.04; Sinf [3]: -99.1112; nHill [3]: 3.073; AC50 (HeLa-ACE2 cells [5]): 1140 nM; AC50 at 24 h (in vitro [6]): 578 nM; EC50 (SARS-CoV-2 [12]; [17]): 381 nM; AC50 (SARS-CoV-2 [12]): 381 nM; EC50 (SARS-CoV-2 [12]; [18]): 381 nM |
| CCC(CC)COC(=O)[C@H](C)N[P@](=O)(OC[C@H]1O[C@@](C#N)(c2ccc3c(N)ncnn23)[C@H](O)[C@@H]1O)Oc1ccccc1 [Remdesivir, reference compound] | 101.769 | decreasing | 1.9121 | -99.8572 | 1.898 | increasing | decreasing | 2.1501e-6 |  | 102 nM | 102 nM | 2150 nM |  |  |  |  |  |  |  |  | SI (average CC50/average EC50) (SARS-CoV-2 [1]): 22.589; S0 (HeLa-ACE2 cells [2]): -15.3429; Sinf (HeLa-ACE2 cells [2]): 34.6571; nHill (HeLa-ACE2 cells [2]): 2.142; HeLa-ACE2 Total Cell Efficacy (Sinf, note + or -) (HeLa-ACE2 cells [2]): 2.142; S0 [3]: 13.7985; Sinf [3]: -53.8717; nHill [3]: 1.539; AC50 (HeLa-ACE2 cells [5]): 102 nM; AC50 at 24 h (in vitro [6]): 2150 nM; EC50 (SARS-CoV-2 [12]; [17]): 95 nM; AC50 (SARS-CoV-2 [12]): 95.2 nM; EC50 (SARS-CoV-2 [12]; [18]): 95.2 nM |
